Source: ChEMBL document CHEMBL6134888, “Challenging the "Undruggable"─Targeting STAT3 but Identifying Potent TrkA-Targeted Inhibitors” (J Med Chem, 2025)

What was measured:
[1] = Metabolic stability in human liver microsome assessed as half life measured up to 60 mins by HPLC-MS/MS analysis; assay type: ADME; settings: liver microsomes
[2] = Apparent permeability of compound across apical to basolateral side in human Caco-2 cells; assay type: ADME, cell-based
[3] = Plasma protein binding in human; assay type: ADME, cell-free; settings: read-out: PPB (converted)
[4] = Metabolic stability in human liver microsome assessed as intrinsic clearance measured up to 60 mins by HPLC-MS/MS analysis; assay type: ADME; settings: liver microsomes, read-out: CLH
[5] = biological target: T1, Tyrosine-protein kinase JAK2 (Homo sapiens, UniProt O60674); test: Inhibition of JAK2 (unknown origin) by Z-LYTE Kinase assay
T1 sequence (O60674 whole entry): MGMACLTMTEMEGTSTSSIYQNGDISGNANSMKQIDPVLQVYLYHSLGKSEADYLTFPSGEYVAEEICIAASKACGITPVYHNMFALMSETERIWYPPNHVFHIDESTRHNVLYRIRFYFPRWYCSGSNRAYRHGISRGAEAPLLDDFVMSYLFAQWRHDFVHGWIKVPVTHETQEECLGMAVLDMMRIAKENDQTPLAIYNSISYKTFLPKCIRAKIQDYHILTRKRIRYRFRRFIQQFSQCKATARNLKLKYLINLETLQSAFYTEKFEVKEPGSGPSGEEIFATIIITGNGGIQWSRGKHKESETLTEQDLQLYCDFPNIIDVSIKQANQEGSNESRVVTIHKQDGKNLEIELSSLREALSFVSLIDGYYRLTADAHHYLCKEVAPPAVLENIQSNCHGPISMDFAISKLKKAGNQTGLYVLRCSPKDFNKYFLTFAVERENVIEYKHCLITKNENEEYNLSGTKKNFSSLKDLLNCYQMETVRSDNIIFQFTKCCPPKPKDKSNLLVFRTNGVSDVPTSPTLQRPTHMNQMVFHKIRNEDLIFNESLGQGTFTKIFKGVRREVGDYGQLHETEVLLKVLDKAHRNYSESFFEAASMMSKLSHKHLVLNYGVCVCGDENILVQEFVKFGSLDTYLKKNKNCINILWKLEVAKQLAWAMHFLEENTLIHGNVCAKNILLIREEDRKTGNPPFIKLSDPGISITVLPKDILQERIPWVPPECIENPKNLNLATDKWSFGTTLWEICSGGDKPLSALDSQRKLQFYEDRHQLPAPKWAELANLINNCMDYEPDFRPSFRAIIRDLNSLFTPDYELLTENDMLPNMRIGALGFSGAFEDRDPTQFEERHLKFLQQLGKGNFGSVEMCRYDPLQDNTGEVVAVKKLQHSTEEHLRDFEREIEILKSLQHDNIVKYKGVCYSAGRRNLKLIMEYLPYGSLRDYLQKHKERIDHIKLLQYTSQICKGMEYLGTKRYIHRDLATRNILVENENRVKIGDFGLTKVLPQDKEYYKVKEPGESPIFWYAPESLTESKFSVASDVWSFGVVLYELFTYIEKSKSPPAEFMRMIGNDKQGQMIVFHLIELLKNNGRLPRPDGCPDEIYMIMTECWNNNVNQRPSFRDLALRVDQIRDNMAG

[6] = biological target: T2, Proto-oncogene tyrosine-protein kinase Src (Homo sapiens, UniProt P12931); test: Inhibition of SRC (unknown origin) by Z-LYTE Kinase assay
T2 sequence (P12931 2-536 limits assumed): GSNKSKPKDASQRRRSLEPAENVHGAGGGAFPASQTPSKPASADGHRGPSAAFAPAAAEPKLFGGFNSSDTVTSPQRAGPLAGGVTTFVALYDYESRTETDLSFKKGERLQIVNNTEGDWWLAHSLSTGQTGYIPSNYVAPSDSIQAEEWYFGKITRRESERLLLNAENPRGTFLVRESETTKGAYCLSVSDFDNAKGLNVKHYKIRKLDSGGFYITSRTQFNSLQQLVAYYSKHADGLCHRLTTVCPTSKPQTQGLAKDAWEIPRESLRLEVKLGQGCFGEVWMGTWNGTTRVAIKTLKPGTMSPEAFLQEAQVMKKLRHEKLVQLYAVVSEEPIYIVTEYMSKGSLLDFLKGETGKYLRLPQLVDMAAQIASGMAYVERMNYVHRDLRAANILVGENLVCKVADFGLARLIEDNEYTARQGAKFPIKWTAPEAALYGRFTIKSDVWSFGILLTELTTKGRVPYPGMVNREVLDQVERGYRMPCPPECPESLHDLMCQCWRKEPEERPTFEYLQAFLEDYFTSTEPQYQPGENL

[7] = biological target: BDNF/NT-3 growth factors receptor (Homo sapiens, UniProt Q16620); test: Binding affinity to TRKB (unknown origin) assessed as dissociation constant by KINOMEscan assay
BDNF/NT-3 growth factors receptor, sequence (Q16620 whole entry): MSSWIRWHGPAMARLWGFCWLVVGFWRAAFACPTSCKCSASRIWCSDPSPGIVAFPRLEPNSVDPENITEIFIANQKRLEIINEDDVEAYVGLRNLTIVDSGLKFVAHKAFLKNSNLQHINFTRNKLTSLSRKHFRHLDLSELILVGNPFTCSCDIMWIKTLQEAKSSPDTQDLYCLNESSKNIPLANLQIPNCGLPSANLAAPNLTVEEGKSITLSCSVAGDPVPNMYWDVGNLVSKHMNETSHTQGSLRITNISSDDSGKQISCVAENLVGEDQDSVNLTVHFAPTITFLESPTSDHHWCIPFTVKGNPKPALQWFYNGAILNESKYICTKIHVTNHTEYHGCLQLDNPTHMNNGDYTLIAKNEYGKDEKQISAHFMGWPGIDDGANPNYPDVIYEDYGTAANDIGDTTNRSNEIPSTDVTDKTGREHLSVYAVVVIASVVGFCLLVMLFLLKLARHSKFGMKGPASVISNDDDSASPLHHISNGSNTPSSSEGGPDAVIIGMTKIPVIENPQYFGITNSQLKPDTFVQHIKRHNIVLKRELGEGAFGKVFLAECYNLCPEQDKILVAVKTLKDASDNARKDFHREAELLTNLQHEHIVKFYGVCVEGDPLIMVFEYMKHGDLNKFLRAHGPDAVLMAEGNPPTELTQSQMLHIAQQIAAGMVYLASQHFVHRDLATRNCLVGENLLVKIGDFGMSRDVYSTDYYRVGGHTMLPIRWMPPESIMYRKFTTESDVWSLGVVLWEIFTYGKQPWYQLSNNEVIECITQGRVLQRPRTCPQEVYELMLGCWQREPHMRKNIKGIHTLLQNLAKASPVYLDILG

[8] = system: LS174T; test: Cytotoxicity against human LS174T cells assessed as cell viability at 100 uM incubated for 72 hrs by resazurin based analysis relative to control; assay type: functional; settings: read-out: Activity
[9] = system: MDA-MB-231; test: Cytotoxicity against human MDA-MB-231 cells assessed as cell viability at 100 uM incubated for 72 hrs by resazurin based analysis relative to control; assay type: functional; settings: read-out: Activity
[10] = biological target: T3, Receptor-type tyrosine-protein kinase FLT3 (Homo sapiens, UniProt P36888); test: Inhibition of FLT3 (unknown origin)
T3 sequence (P36888 whole entry): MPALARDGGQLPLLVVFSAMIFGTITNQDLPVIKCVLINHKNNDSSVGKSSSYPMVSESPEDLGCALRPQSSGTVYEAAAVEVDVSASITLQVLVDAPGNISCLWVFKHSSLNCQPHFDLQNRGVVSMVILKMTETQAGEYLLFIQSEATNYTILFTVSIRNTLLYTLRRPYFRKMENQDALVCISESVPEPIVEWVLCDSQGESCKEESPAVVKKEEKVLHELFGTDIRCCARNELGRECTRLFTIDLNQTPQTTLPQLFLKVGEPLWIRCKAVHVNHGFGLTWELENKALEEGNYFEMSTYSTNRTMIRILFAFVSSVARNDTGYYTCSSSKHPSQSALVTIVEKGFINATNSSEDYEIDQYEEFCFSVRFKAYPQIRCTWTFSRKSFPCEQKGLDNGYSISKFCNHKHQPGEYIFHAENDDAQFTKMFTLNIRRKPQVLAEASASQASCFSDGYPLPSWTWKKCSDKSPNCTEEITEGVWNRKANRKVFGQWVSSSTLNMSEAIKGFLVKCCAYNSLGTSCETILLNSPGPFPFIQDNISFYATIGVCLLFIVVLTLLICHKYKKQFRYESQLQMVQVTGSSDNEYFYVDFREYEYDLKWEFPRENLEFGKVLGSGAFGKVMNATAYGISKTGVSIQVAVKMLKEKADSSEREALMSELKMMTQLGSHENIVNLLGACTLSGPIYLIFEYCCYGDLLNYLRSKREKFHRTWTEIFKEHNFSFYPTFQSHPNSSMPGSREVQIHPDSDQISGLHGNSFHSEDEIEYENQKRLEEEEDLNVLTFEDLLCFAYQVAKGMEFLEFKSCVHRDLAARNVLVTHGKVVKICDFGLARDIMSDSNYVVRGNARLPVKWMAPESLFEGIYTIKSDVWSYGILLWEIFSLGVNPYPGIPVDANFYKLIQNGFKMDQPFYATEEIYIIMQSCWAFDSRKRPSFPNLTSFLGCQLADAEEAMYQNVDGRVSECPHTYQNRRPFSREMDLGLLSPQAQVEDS

[11] = system: LS174T; test: Cytotoxicity against human LS174T cells assessed as effect on cell viability incubated for 72 hrs by resazurin based analysis
[12] = biological target: T4, High affinity nerve growth factor receptor (Homo sapiens, UniProt P04629); test: Binding affinity to TRKA (unknown origin) assessed as dissociation constant
T4 sequence (P04629 whole entry): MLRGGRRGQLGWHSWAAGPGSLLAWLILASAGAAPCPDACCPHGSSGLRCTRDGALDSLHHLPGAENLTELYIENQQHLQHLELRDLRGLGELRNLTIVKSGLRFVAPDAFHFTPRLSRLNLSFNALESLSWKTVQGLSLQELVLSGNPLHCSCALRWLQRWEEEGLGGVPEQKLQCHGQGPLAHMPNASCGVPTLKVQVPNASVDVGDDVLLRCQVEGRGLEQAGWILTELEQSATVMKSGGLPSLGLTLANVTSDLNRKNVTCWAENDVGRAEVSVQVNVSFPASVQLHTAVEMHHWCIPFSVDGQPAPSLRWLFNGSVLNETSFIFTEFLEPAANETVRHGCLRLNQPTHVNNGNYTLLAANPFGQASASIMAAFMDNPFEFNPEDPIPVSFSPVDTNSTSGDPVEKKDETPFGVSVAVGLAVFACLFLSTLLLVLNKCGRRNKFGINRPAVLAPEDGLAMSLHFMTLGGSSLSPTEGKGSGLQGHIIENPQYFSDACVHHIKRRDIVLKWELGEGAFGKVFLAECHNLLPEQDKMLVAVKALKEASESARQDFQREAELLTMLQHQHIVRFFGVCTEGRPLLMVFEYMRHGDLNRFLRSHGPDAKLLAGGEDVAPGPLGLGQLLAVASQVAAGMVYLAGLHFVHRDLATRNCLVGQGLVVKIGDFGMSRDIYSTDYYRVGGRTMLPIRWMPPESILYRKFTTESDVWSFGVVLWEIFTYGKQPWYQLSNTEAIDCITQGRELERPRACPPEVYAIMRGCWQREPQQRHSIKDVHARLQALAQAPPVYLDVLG

[13] = system: MDA-MB-231; test: Cytotoxicity against human MDA-MB-231 cells assessed as effect on cell viability incubated for 72 hrs by resazurin based analysis; settings: MDA-MB-231, 72 h
[14] = biological target: Tyrosine-protein kinase ABL1 (Homo sapiens, UniProt P00519); test: Binding affinity to ABL1 (unknown origin) assessed as dissociation constant
Tyrosine-protein kinase ABL1, sequence (P00519 whole entry): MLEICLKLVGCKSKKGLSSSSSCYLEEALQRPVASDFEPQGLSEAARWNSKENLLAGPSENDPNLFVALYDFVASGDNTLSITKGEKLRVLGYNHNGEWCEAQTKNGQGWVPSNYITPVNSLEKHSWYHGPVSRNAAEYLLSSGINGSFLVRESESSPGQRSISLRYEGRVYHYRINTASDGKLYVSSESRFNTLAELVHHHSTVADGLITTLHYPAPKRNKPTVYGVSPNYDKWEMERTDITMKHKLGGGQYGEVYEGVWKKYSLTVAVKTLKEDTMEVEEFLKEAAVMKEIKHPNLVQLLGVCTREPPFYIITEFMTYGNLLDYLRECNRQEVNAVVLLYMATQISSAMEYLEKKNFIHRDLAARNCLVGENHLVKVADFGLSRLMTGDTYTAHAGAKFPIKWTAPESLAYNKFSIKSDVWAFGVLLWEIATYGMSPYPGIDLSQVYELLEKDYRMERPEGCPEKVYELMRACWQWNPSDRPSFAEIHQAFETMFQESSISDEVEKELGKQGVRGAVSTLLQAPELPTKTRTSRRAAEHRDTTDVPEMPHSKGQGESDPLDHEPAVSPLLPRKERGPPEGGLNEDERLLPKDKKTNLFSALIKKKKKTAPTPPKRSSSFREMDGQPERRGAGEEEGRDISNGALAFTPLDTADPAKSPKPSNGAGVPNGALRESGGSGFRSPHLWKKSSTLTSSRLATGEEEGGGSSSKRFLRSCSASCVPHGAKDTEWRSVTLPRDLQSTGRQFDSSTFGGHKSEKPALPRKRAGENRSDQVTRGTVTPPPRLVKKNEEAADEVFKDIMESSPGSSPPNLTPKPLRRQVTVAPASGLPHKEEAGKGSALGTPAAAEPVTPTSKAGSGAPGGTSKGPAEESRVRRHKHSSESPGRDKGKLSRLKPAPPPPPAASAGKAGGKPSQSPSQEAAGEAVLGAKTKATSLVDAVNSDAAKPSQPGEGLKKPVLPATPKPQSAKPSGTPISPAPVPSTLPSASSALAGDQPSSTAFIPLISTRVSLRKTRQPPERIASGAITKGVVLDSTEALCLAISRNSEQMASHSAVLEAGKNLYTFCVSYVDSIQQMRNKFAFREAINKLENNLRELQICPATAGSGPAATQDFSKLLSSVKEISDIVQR

[15] = biological target: T2, Proto-oncogene tyrosine-protein kinase Src; test: Binding affinity to SRC (unknown origin) assessed as dissociation constant
[16] = system: KM12; test: cells; settings: Homo sapiens, KM12, 72 h
Description: Cytotoxicity against human KM12 cells assessed as inhibition of cell viability incubated for 72 hrs by resazurin based analysis

[17] = biological target: MAP kinase-activated protein kinase 2 (Homo sapiens, UniProt P49137); test: Inhibition of MK2 (unknown origin)
MAP kinase-activated protein kinase 2, sequence (P49137 whole entry): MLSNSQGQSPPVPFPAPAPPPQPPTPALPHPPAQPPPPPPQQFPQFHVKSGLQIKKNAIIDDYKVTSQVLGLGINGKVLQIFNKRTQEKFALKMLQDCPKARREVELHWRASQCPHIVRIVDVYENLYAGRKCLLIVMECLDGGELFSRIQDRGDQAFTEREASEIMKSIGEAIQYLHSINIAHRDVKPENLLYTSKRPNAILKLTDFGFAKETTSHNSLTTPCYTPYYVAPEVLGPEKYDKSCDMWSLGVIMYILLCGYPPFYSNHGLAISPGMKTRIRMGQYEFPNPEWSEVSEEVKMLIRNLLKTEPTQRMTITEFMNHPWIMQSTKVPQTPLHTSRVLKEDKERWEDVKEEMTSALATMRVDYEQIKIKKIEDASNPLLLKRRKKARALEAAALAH

[18] = biological target: T1, Tyrosine-protein kinase JAK2; test: Binding affinity to JAK2 (unknown origin) assessed as dissociation constant
[19] = biological target: T4, High affinity nerve growth factor receptor; test: Binding affinity to TRKA (unknown origin) assessed as dissociation constant by KINOMEscan assay
[20] = biological target: T5, Serine/threonine-protein kinase Nek2 (Homo sapiens, UniProt P51955); test: Inhibition of NEK2 (unknown origin)
T5 sequence (P51955 whole entry): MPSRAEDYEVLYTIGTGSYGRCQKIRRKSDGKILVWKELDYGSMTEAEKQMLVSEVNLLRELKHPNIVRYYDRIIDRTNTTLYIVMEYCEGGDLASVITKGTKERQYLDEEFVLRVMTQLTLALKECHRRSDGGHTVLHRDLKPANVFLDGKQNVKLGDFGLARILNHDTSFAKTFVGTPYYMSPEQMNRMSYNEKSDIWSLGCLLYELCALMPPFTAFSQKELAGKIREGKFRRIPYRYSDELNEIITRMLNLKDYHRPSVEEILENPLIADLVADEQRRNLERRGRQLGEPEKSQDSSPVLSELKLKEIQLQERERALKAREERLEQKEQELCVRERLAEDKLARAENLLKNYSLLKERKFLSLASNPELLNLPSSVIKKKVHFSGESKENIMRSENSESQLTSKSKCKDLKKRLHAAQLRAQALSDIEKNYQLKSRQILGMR

Row | half-life [1] | Papp A→B [2] | fraction unbound [3] | microsomal CLint [4] | IC50 [5] | IC50 [6] | Kd [7] | IC50 [10] | Kd [12] | Kd [14] | Kd [15] | IC50 [16] | IC50 [17] | Kd [18] | Kd [19] | IC50 [20] | Structure (SMILES) | viability at 100 µM [8] | viability at 100 µM [9] | IC50 [11] | IC50 [13]
1 | 1.75 h | 8 ×10⁻⁶ cm/s | 0.043 | 66.2 µL/min/mg | 177 nM | – | – | – | – | – | – | – | – | – | – | – | CC(=O)Nc1cccc(-c2cnc(N)c(N[C@H](C)c3ccccc3)n2)c1 | – | – | – | –
2 | – | – | – | – | 663 nM | 4520 nM | 180 nM | – | – | – | – | – | – | – | – | – | CC(Nc1nc(-c2cccnc2)cnc1N)c1ccccc1 (racemic) | 83% | 43% | – | –
3 | 0.653 h | – | 0.004 | 177 µL/min/mg | – | – | 150 nM | 70 nM | 36 nM | 5300 nM | 640 nM | < 300 nM | 750 nM | 1100 nM | 52 nM | 870 nM | CC(Nc1nc(-c2cccc(N(C)C)c2)cnc1N)c1ccccc1 (racemic) | – | – | > 10000 nM | > 10000 nM
